± gives the expanded uncertainty stated by the source.
Key:
[1] = Crystal; DTA
[2] = Molar enthalpy of transition or fusion; conditions: Crystal; DSC

Normal melting temperature [1]: 80.00 ± 0.5 °C
Molar enthalpy of transition or fusion [2]: 28.3 ± 0.84 kJ/mol
SMILES: Clc1ccc(C(c2ccccc2Cl)C(Cl)Cl)cc1 (configuration not stated) [1,1-dichloro-2-(2-chlorophenyl)-2-(4-chlorophenyl)ethane]
